We go through eleven molecules from ChEMBL document CHEMBL1201862, “PubChem BioAssay data set” (2004).

As usually defined, the GI50 is the concentration giving 50% growth inhibition.

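Exposure lasted 48 hours, with cells grown in 96-well plates and compounds tested at five concentrations. The concentration for 50% growth inhibition is given as GI50.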 The source made the active and inactive calls. Cut-off read from the data, not from the text of the source: active = GI50 up to about 1.1 µM and inactive = higher. Bounds are passed on as bounds.

Some test systems named below: 786-0; A498; CCRF-CEM; HCT-116; HCT-15; HT-29; IGROV-1; K562; LOX IMVI; M14; MDA-MB-435; MDA-N; OVCAR-4; OVCAR-5; SK-MEL-28; SK-MEL-2; SNB-75; SW-620; U-251; SF-539.
Test in all cases: DTP human tumour cell line panel, 48 h

For the molecule `NS(=O)(=O)c1ccc(N=C2C(=O)Nc3ccccc32)cc1`, the GI50 in the assay with 786-0 was > 100 µM (inactive); in the assay with A498 it was > 100 µM (inactive); in the assay with CCRF-CEM it was 55.8 µM (inactive); with HCT-116, > 100 µM (inactive); in the assay on HCT-15 it was above 100 µM; with HT-29, > 100 µM (inactive). The GI50 in the assay on IGROV-1 is > 100 µM (inactive); in the assay on K562 it was 65.8 µM (inactive); with LOX IMVI, 57.7 µM (inactive); in the assay on M14, > 100 µM (inactive); with MDA-MB-435, 24.5 µM (inactive); in the assay on MDA-N, > 100 µM (inactive). Besides, the GI50 in the assay on OVCAR-4, in the assay on OVCAR-5, with SK-MEL-28, in the assay on SK-MEL-2, in the assay on SNB-75 and in the assay on SW-620 was > 100 µM (inactive) each time. For the same molecule, the GI50 in the assay with U-251 was > 100 µM (inactive).

For `O=C(CC(C(=O)c1ccsc1)c1cccs1)c1ccsc1` (centres undefined), the GI50 was > 100 µM (inactive) in the assay on 786-0; 81.8 µM (inactive) in the assay on A498; 15.2 µM (inactive) with CCRF-CEM; 45.6 µM with HCT-15; 63.1 µM (inactive) with HT-29; > 100 µM (inactive) in the assay on IGROV-1. Besides, the GI50 is 42.8 µM (inactive) in the assay with K562; 34.1 µM (inactive) in the assay with LOX IMVI; 56 µM (inactive) with M14; 34.8 µM (inactive) in the assay with MDA-MB-435; 30.1 µM (inactive) with MDA-N; 73.5 µM (inactive) with OVCAR-4. Moreover, the GI50 in the assay with OVCAR-5 was > 100 µM (inactive); in the assay on SK-MEL-28, 76.2 µM (inactive); in the assay with SK-MEL-2 it was 94 µM (inactive); with SNB-75, 27.4 µM (inactive); with SW-620 it was > 100 µM (inactive); with U-251 it was > 100 µM (inactive).

As for `C[C@@H](c1ccccc1)n1c(N)c(C#N)c2ccc([N+](=O)[O-])cc2c1=O`, the GI50 in the assay with 786-0 was 15 µM (inactive); with A498, 6.27 µM (inactive); in the assay on CCRF-CEM, 14.6 µM (inactive); in the assay on HCT-116 it was 14.4 µM (inactive); in the assay on HCT-15, 12.9 µM; in the assay with HT-29 it was 14.5 µM (inactive). The GI50 with K562 is 12.8 µM (inactive); in the assay with LOX IMVI it was 14.2 µM (inactive); in the assay on MDA-MB-435, 14.2 µM (inactive); with MDA-N, 23.1 µM (inactive); in the assay with OVCAR-4, 14.2 µM (inactive); with SK-MEL-28, 15 µM (inactive). For the same molecule, the GI50 was > 100 µM (inactive) in the assay with SK-MEL-2, 5.51 µM (inactive) in the assay on SNB-75, 19.1 µM (inactive) in the assay on SW-620 and 18.7 µM (inactive) in the assay with U-251.

For `O=C1OCCC[C@H]2O[C@@H](COCc3ccccc3)C[C@@H]12`, the GI50 in the assay with 786-0 is > 100 µM (inactive); in the assay on A498, > 100 µM (inactive); with CCRF-CEM, > 100 µM (inactive); in the assay with HCT-116 it was > 100 µM (inactive); in the assay on HCT-15, above 100 µM; with HT-29 it was > 100 µM (inactive). The GI50 in the assay on K562, in the assay on M14, in the assay on MDA-MB-435, in the assay on MDA-N, in the assay on OVCAR-4 and in the assay with OVCAR-5 was > 100 µM (inactive) in each case. In addition, the GI50 with SF-539, with SK-MEL-28, with SK-MEL-2, in the assay with SNB-75, in the assay with SW-620 and in the assay on U-251 was > 100 µM (inactive) each time.

With `CC1CC(NN(C)C)C2(C(N)=O)C(N)=NC(=O)C12C#N` (centres undefined), the GI50 is > 100 µM (inactive) in the assay with 786-0; > 100 µM (inactive) with A498; > 100 µM (inactive) with CCRF-CEM; > 100 µM (inactive) with HCT-116; above 100 µM in the assay with HCT-15; > 100 µM (inactive) with HT-29. The GI50 with IGROV-1, in the assay on K562, in the assay with LOX IMVI, in the assay with M14, in the assay with MDA-MB-435 and in the assay on MDA-N was > 100 µM (inactive) each time. For the same molecule, the GI50 in the assay with OVCAR-5 is > 100 µM (inactive); with SF-539, > 100 µM (inactive); in the assay on SK-MEL-28, > 100 µM (inactive); with SK-MEL-2, > 100 µM (inactive); in the assay on SNB-75, 10 µM (inactive); in the assay with SW-620, > 100 µM (inactive). For the same molecule, the GI50 in the assay with U-251 was > 100 µM (inactive).

For `CCOC(=O)c1sc2c(c1OC(=O)c1cc(OC)c(OC)c(OC)c1)c(=O)n(-c1ccccc1)c(=S)n2-c1ccccc1`, the GI50 was 84.1 µM (inactive) with 786-0; > 100 µM (inactive) in the assay on A498; 17.5 µM (inactive) in the assay with CCRF-CEM; > 100 µM (inactive) in the assay on HCT-116; 47.3 µM in the assay with HCT-15; 98.9 µM (inactive) with HT-29. Moreover, the GI50 is > 100 µM (inactive) in the assay with IGROV-1; 65 µM (inactive) with K562; > 100 µM (inactive) with LOX IMVI; 40.5 µM (inactive) in the assay with M14; 79.1 µM (inactive) in the assay on MDA-MB-435; > 100 µM (inactive) in the assay with MDA-N. For the same molecule, the GI50 was 70.8 µM (inactive) in the assay on OVCAR-4; > 100 µM (inactive) with OVCAR-5; > 100 µM (inactive) in the assay with SF-539; > 100 µM (inactive) in the assay on SK-MEL-28; > 100 µM (inactive) in the assay with SNB-75; > 100 µM (inactive) with SW-620. In addition, the GI50 in the assay on U-251 is 49.8 µM (inactive).

For the molecule `COc1ccccc1C(O)[C@@H]1C[C@@H]2[C@H]3CC[C@@](C)([C@@H]2O1)C3(C)C` (some centres undefined), the GI50 was 17.8 µM (inactive) in the assay with 786-0; 15.4 µM (inactive) with A498; 20.8 µM (inactive) with CCRF-CEM; 20.5 µM (inactive) with HCT-116; 20.7 µM in the assay with HCT-15; 19.4 µM (inactive) in the assay on HT-29. Moreover, the GI50 in the assay with IGROV-1 is 15.9 µM (inactive); in the assay with K562 it was 21.3 µM (inactive); in the assay with LOX IMVI, 18.4 µM (inactive); in the assay with M14, 21.4 µM (inactive); in the assay on MDA-MB-435 it was 18.5 µM (inactive); in the assay on MDA-N, 16.7 µM (inactive). For the same molecule, the GI50 in the assay with OVCAR-5 was 19.5 µM (inactive); in the assay with SF-539 it was 6.53 µM (inactive); in the assay on SK-MEL-28 it was 17.1 µM (inactive); with SK-MEL-2, 18.1 µM (inactive); in the assay on SNB-75, 16.9 µM (inactive); in the assay with SW-620 it was 16.1 µM (inactive). In the assay with U-251, the GI50 was 16.5 µM (inactive).

Turning to `CCCCCCCC(CC(=O)NC(CO)C(=O)NC(CO)CC(C)C)OC(=O)CC(CCCCCCC)OC(=O)CC(CCCCCCC)OC1OC(C)C(O)C(OC2OC(C)C(O)C(O)C2OC(C)=O)C1O` (centres undefined), the GI50 in the assay with 786-0 is 5 µM (inactive); in the assay with A498 it was 15.8 µM (inactive); in the assay with CCRF-CEM it was 3.15 µM (inactive); in the assay with HCT-116, 3.94 µM (inactive); in the assay on HT-29, 3.6 µM (inactive); with IGROV-1, 10.9 µM (inactive). The GI50 in the assay with K562 is 4.13 µM (inactive); in the assay with M14, 5.69 µM (inactive); in the assay with MDA-MB-435 it was 2.75 µM (inactive); in the assay with MDA-N, 3.46 µM (inactive); with OVCAR-4 it was 5.64 µM (inactive); in the assay with OVCAR-5, 10.3 µM (inactive). Besides, the GI50 was 11.1 µM (inactive) with SF-539; 9.64 µM (inactive) in the assay with SK-MEL-28; 4.29 µM (inactive) with SNB-75; 8.75 µM (inactive) with SW-620; 7.03 µM (inactive) with U-251.

For `O=C(OC1CN2CCC1CC2)N(c1ccccc1)c1ccccc1` (centres undefined), the GI50 with 786-0 was > 100 µM (inactive); in the assay with A498, 24.7 µM (inactive); in the assay with CCRF-CEM it was 54.7 µM (inactive); with HCT-116, 47.4 µM (inactive); in the assay on HCT-15, above 100 µM; in the assay with HT-29, 44.9 µM (inactive). In addition, the GI50 with IGROV-1 was > 100 µM (inactive); in the assay with K562, 24.9 µM (inactive); with LOX IMVI it was 38.5 µM (inactive); with M14, 22.9 µM (inactive); in the assay with MDA-MB-435, > 100 µM (inactive); with MDA-N, > 100 µM (inactive). The GI50 in the assay on OVCAR-4 is > 100 µM (inactive); in the assay on OVCAR-5, > 100 µM (inactive); in the assay with SF-539, 68.4 µM (inactive); in the assay on SK-MEL-28 it was 80.5 µM (inactive); with SK-MEL-2, > 100 µM (inactive); with SNB-75, 46.2 µM (inactive). The GI50 with U-251 is > 100 µM (inactive).

Turning to `CC(C)(C)c1cc(-c2ccc(-c3cc(C(C)(C)C)c(O)c(C(C)(C)C)c3)cc2)cc(C(C)(C)C)c1O`, the GI50 in the assay on 786-0 was > 100 µM (inactive); in the assay on A498, > 100 µM (inactive); with HCT-116, > 100 µM (inactive); with HCT-15, above 100 µM; in the assay on HT-29 it was > 100 µM (inactive); in the assay with IGROV-1, > 100 µM (inactive). Besides, the GI50 in the assay with K562, in the assay with LOX IMVI, in the assay with M14, with MDA-MB-435, in the assay with MDA-N and with OVCAR-4 was > 100 µM (inactive) throughout. Moreover, the GI50 with OVCAR-5, with SF-539, with SK-MEL-28, with SK-MEL-2, in the assay with SNB-75 and in the assay on SW-620 was > 100 µM (inactive) in each case. For the same molecule, the GI50 in the assay with U-251 was > 100 µM (inactive).

With `CC(=O)c1sc(Nc2ccc(Cl)c(Cl)c2)nc1C`, the GI50 was > 100 µM (inactive) in the assay on 786-0; 32.4 µM (inactive) with A498; > 100 µM (inactive) with HCT-116; 93.8 µM in the assay with HCT-15; 76.4 µM (inactive) with HT-29; > 100 µM (inactive) in the assay with IGROV-1. Moreover, the GI50 in the assay with LOX IMVI, in the assay with MDA-MB-435, with MDA-N, in the assay on OVCAR-4, in the assay with OVCAR-5 and with SF-539 was > 100 µM (inactive) each time. In addition, the GI50 in the assay with SK-MEL-28 was > 100 µM (inactive); in the assay on SNB-75 it was 54.1 µM (inactive); in the assay with SW-620, > 100 µM (inactive); in the assay with U-251, > 100 µM (inactive).
